Assay results reported in patent publication US20240226026A1, “BRANCHED TAIL LIPID COMPOUNDS AND COMPOSITIONS FOR INTRACELLULAR DELIVERY OF THERAPEUTIC AGENTS” (ModernaTX, Inc., priority 2021, published 2024).

Key:
[1] = Particle size (diameter) and polydispersity index of lipid nanoparticles; type: physicochemical; details: nanoparticles comprising the lipid
Description: A Zetasizer Nano ZS (Malvern Instruments Ltd, Malvern, Worcestershire, UK) can be used to determine the particle size, the polydispersity index (PDI) and the zeta potential of the nanoparticle compositions in 1×PBS in determining particle size and 15 mM PBS in determining zeta potential.
Lipid nanoparticles (e.g., empty LNPs or loaded LNPs) may be characterized by a variety of methods. For example, microscopy (e.g., transmission electron microscopy or scanning electron microscopy) may be used to examine the morphology and size distribution of a nanoparticle composition. Dynamic light scattering or potentiometry (e.g., potentiometric titrations) may be used to measure zeta potentials. Dynamic light scattering may also be utilized to determine particle sizes. Instruments such as the Zetasizer Nano ZS (Malvern Instruments Ltd, Malvern, Worcestershire, UK) may also be used to measure multiple characteristics of a nanoparticle composition, such as particle size, polydispersity index, and zeta potential.
(§1) Lipid nanoparticles (e.g., empty LNPs or loaded LNPs) including DSPC as a phospholipid, cholesterol as a structural lipid, PL-II (e.g., PEG-1) as a PEG lipid, and a lipid according to Formula (I-1), (I), (I-A), (I-A1), (I-A2), (I-A3), or (I-A4) were prepared. In some embodiments, the lipid nanoparticles further included rhodamine-DOPE as a fluorescent lipid. Tables 2a, 2b, and 3 summarize the characteristics of the formulations.

[2] = Lipid nanoparticle surface hydrophobicity by Generalized Polarization by Laurdan (N-GP); type: physicochemical
Text: Surface hydrophobicity of nanoparticles of the disclosure can be measured by Generalized Polarization by Laurdan (GPL). In this method, Laurdan, a fluorescent aminonaphthalene ketone lipid, is post-inserted into the nanoparticle surface and the fluorescence spectrum of Laurdan is collected to determine the normalized Generalized Polarization (N-GP). In some embodiments, nanoparticles formulated with lipids of the disclosure have a surface hydrophobicity expressed as N-GP of between about 0.5 and about 1.5. For example, in some embodiments, nanoparticles formulated with lipids of the disclosure have a surface hydrophobicity expressed as N-GP of about 0.5, about 0.6, about 0.7, about 0.8, about 0.9, about 1.0, about 1.1, about 1.2, about 1.3, about 1.4, or about 1.5. In some embodiments, nanoparticles formulated with lipids of the disclosure have a surface hydrophobicity expressed as N-GP of about 1.0 or about 1.1.

[3] = Encapsulation efficiency (% EE) of lipid nanoparticles; type: physicochemical; details: nanoparticles comprising the lipid
Description: For nanoparticle compositions including an RNA, a QUANT-IT™ RIBOGREEN® RNA assay (Invitrogen Corporation Carlsbad, CA) can be used to evaluate the encapsulation of an RNA by the nanoparticle composition. The samples are diluted to a concentration of approximately 5 μg/mL in a TE buffer solution (10 mM Tris-HCl, 1 mM EDTA, pH 7.5). 50 μL of the diluted samples are transferred to a polystyrene 96 well plate and either 50 μL of TE buffer or 50 μL of a 2% Triton X-100 solution is added to the wells. The plate is incubated at a temperature of 37° C. for 15 minutes. The RIBOGREEN® reagent is diluted 1:100 in TE buffer, and 100 μL of this solution is added to each well. The fluorescence intensity can be measured using a fluorescence plate reader (Wallac Victor 1420 Multilablel Counter; Perkin Elmer, Waltham, MA) at an excitation wavelength of, for example, about 480 nm and an emission wavelength of, for example, about 520 nm. The fluorescence values of the reagent blank are subtracted from that of each of the samples and the percentage of free RNA is determined by dividing the fluorescence intensity of the intact sample (without addition of Triton X-100) by the fluorescence value of the disrupted sample (caused by the addition of Triton X-100).
The efficiency of encapsulation of a therapeutic and/or prophylactic describes the amount of therapeutic and/or prophylactic that is encapsulated or otherwise associated with a lipid nanoparticle (e.g., an empty LNP or a loaded LNP) after preparation, relative to the initial amount provided. The encapsulation efficiency is desired to be high (e.g., close to 100%). The encapsulation efficiency may be measured, for example, by comparing the amount of therapeutic and/or prophylactic in a solution containing a loaded LNP before and after breaking up the loaded LNP with one or more organic solvents or detergents. Fluorescence may be used to measure the amount of free therapeutic and/or prophylactic (e.g., RNA) in a solution. For the loaded LNPs formulated with lipids of the disclosure, the encapsulation efficiency of a therapeutic and/or prophylactic is at least 50%, for example 50%, 55%, 60%, 65%, 70%, 75%, 80%, 85%, 90%, 91%, 92%, 93%, 94%, 95%, 96%, 97%, 98%, 99%, or 100%. In some embodiments, the encapsulation efficiency is at least 80%. In some embodiments, the encapsulation efficiency is at least 90%. In some embodiments, the encapsulation efficiency of the therapeutic and/or prophylactic agent is between 80% and 100%.
as §1

[4] = Apparent pKa of lipid nanoparticles; type: physicochemical
CD-1 mice = experiment: Expression of hEPO induced by LNPs (mRNA encoding hEPO) administered to mice; type: in vivo; details: serum, 6 h after intravenous injection; for Avg. hEPO Concentration (mIU/mL): Table 4b
Description: In some embodiments, hEPO concentrations were determined using an […] (ELLA) Simple Plex Assay (ProteinSimple) with a Human Erythroprotein cartridge. Standards for this assay are calibrated according to the 2. IRP WHO preparation. Nanoparticle compositions including mRNA are useful in the evaluation of the efficacy and usefulness of various formulations for the delivery of therapeutic and/or prophylactics. Higher levels of protein expression induced by administration of a composition including an mRNA will be indicative of higher mRNA translation and/or nanoparticle composition mRNA delivery efficiencies. As the non-RNA components are not thought to affect translational machineries themselves, a higher level of protein expression is likely indicative of a higher efficiency of delivery of the therapeutic and/or prophylactic by a given nanoparticle composition relative to other nanoparticle compositions or the absence thereof.
To assess potency of expression of lipids of the disclosure, the protein expression (hEPO) following administration of a nanoparticle comprising a lipid of the disclosure (e.g., a loaded LNP) to mice was measured.
Lipid nanoparticles (LNPs) including DSPC as a phospholipid, cholesterol as a structural lipid, PL-II (e.g., PEG-1) as a PEG lipid, a lipid according to Formula (I-1), (I), (I-A), (I-A1), (I-A2), (I-A3), or (I-A4), and an mRNA encoding hEPO were intravenously administered to CD-1 mice. The concentration of hEPO in serum was tested at 6 h after injection.

Row | Compound | Avg. hEPO Concentration (mIU/mL) (CD-1 mice; ELLA Simple Plex Assay) | further results
1 | CCCCCCCCC(CCCCCCCC)OC(=O)CCCCCCCN(CCCCCCCC(=O)OCCC(CCCC)CCCC)CCCNc1n[s+]([O-])nc1NC (stereo not drawn) [Compound 1] |  | PDI ([1]; Table 2a): 0.342; Diameter (nm) ([1]; Table 2a, DSPC, cholesterol, PEG lipid): 69.7 nm; Diameter (nm) ([1]; Table 3): 63.3 nm; PDI ([1]; Table 3): 0.083; Lipid nanoparticle surface hydrophobicity (N-GP*) ([2]; Table 2a, Laurdan, higher N-GP indicates a less polar surface): 1.07; % EE ([3]; Table 2a): 98.1%; % EE ([3]; Table 3): 97.9%; Apparent pKa ([4]; Table 2a, nanoparticles comprising the lipid): 7.187; Avg. hEPO Concentration (mIU/mL) ± Avg. SD (CD-1 mice; Table 4a): 7.26E+06 ± 1.51E+05 mIU/mL
2 | CCCCCCCCC(CCCCCCCC)OC(=O)CCCCCCCN(CCCCCCCC(=O)OCCC(CCCC)CCCC)CCCNc1noc(N)n1 [Compound 2] |  | Diameter (nm) ([1]; Table 2b): 68.6 nm; PDI ([1]; Table 2b): 0.214; Diameter (nm) ([1]; Table 3): 52.6 nm; PDI ([1]; Table 3): 0.163; LNP surface hydrophobicity (N-GP*) ([2]; Table 2b, nanoparticles comprising the lipid): 1.21; % EE ([3]; Table 2b): 99.2%; % EE ([3]; Table 3): 97.6%; Apparent pKa 95% CI ([4]; Table 2b, 95% confidence interval): 6.437 to 6.559; Avg. hEPO Concentration (mIU/mL)* ± Avg. SD (CD-1 mice; Table 4a, ELLA Simple Plex Assay): 3.38E+05 ± 9.49E+03 mIU/mL
3 | CCCCCCCCC(CCCCCCCC)OC(=O)CCCCCCCN(CCCCCCCC(=O)OCCC(CCCC)CCCC)CCCNC(C)=O [Compound 29] | 7.06E+05 | 
4 | CCCCCCCCC(CCCCCCCC)OC(=O)CCCCCCCN(CCCCCCCC(=O)OCCC(CCCC)CCCC)CCCNC(=O)CC [Compound 30] | 4.73E+06 | 
5 | CCCCCCCCC(CCCCCCCC)OC(=O)CCCCCCCN(CCCCCCCC(=O)OCCC(CCCC)CCCC)CCCNC(=O)C(C)C [Compound 31] | 2.31E+06 | 
6 | CCCCCCCCC(CCCCCCCC)OC(=O)CCCCCCCN(CCCCCCCC(=O)OCCC(CCCC)CCCC)CCCNC(=O)C(C)(C)C [Compound 32] | 1.54E+06 | 
7 | CCCCCCCCC(CCCCCCCC)OC(=O)CCCCCCCN(CCCCCCCC(=O)OCCC(CCCC)CCCC)CCCNC(=O)c1ccccc1 [Compound 33] | 1.78E+05 | 
8 | CCCCCCCCC(CCCCCCCC)OC(=O)CCCCCCCN(CCCCCCCC(=O)OCCC(CCCC)CCCC)CCCNC(=O)C(C)O (stereo not drawn) [Compound 35] | 1.54E+05 | 
9 | CCCCCCCCC(CCCCCCCC)OC(=O)CCCCCCCN(CCCCCCCC(=O)OCCC(CCCC)CCCC)CCCNC(=O)C1(C)CCC1 [Compound 36] | 1.41E+06 | 
10 | CCCCCCCCC(CCCCCCCC)OC(=O)CCCCCCCN(CCCCCCCC(=O)OCCC(CCCC)CCCC)CCCNC(=O)C1(CC)CC1 [Compound 37] | 1.39E+06 | 
11 | CCCCCCCCC(CCCCCCCC)OC(=O)CCCCCCCN(CCCCCCCC(=O)OCCC(CCCC)CCCC)CCCNC(=O)COC [Compound 38] | 6.13E+05 | 
12 | CCCCCCCCC(CCCCCCCC)OC(=O)CCCCCCCN(CCCCCCCC(=O)OCCC(CCCC)CCCC)CCCNC(=O)C1CC1 [Compound 39] | 2.93E+06 | 
13 | CCCCCCCCC(CCCCCCCC)OC(=O)CCCCCCCN(CCCCCCCC(=O)OCCC(CCCC)CCCC)CCCNC(=O)C1CCOCC1 [Compound 40] | 2.16E+06 | 
14 | CCCCCCCCC(CCCCCCCC)OC(=O)CCCCCCCN(CCCCCCCC(=O)OCCC(CCCC)CCCC)CCCNC(=O)C1CCCCC1 [Compound 41] | 1.31E+06 | 
15 | CCCCCCCCC(CCCCCCCC)OC(=O)CCCCCCCN(CCCCCCCC(=O)OCCC(CCCC)CCCC)CCCNC(=O)C12CCC(CC1)CC2 [Compound 42] | 1.02E+06 | 
16 | CCCCCCCCC(CCCCCCCC)OC(=O)CCCCCCCN(CCCCCCCC(=O)OCCC(CCCC)CCCC)CCCNC(=O)C1CCCO1 (stereo not drawn) [Compound 43] | 2.23E+06 | 
17 | CCCCCCCCC(CCCCCCCC)OC(=O)CCCCCCCN(CCCCCCCC(=O)OCCC(CCCC)CCCC)CCCNC(=O)C1CCOC1 (stereo not drawn) [Compound 44] | 1.02E+06 | 
18 | CCCCCCCCC(CCCCCCCC)OC(=O)CCCCCCCN(CCCCCCCC(=O)OCCC(CCCC)CCCC)CCCNC(=O)CNC(C)=O [Compound 46] | 3.88E+03 | 
19 | CC#CC(=O)NCCCN(CCCCCCCC(=O)OCCC(CCCC)CCCC)CCCCCCCC(=O)OC(CCCCCCCC)CCCCCCCC [Compound 47] | 1.17E+06 | 
20 | CCCCCCCCC(CCCCCCCC)OC(=O)CCCCCCCN(CCCCCCCC(=O)OCCC(CCCC)CCCC)CCCNC(=O)C1CCN(C(C)=O)C1 (stereo not drawn) [Compound 48] | 1.47E+02 | 
21 | CCCCCCCCC(CCCCCCCC)OC(=O)CCCCCCCN(CCCCCCCC(=O)OCCC(CCCC)CCCC)CCCNC(=O)C#CC1CC1 [Compound 50] | 2.60E+05 | 
22 | CCCCCCCCC(CCCCCCCC)OC(=O)CCCCCCCN(CCCCCCCC(=O)OCCC(CCCC)CCCC)CCCNC(=O)C1(C)CCOC1 (stereo not drawn) [Compound 55] | 2.61E+06 | 
23 | CCCCCCCCC(CCCCCCCC)OC(=O)CCCCCCCN(CCCCCCCC(=O)OCCC(CCCC)CCCC)CCCNC(=O)C1(C)CCCO1 (stereo not drawn) [Compound 56] | 1.17E+04 | 
24 | CCCCCCCCC(CCCCCCCC)OC(=O)CCCCCCCN(CCCCCCCC(=O)OCCC(CCCC)CCCC)CCCNC(=O)C1(C)CCCCC1 [Compound 58] | 4.17E+05 | 
25 | CCCCCCCCC(CCCCCCCC)OC(=O)CCCCCCCN(CCCCCCCC(=O)OCCC(CCCC)CCCC)CCCNC=O [Compound 59] | 3.27E+05 | 
26 | CCCCCCCCC(CCCCCCCC)OC(=O)CCCCCCCN(CCCCCCCC(=O)OCCC(CCCC)CCCC)CCCNC(=O)C1CN(C(C)=O)C1 [Compound 60] | 2.10E+02 | 
